The record followed here is publication PMC6920776, “Exploring Biological Activity of 4-Oxo-4H-furo[2,3-h]chromene Derivatives as Potential Multi-Target-Directed Ligands Inhibiting Cholinesterases, β-Secretase, Cyclooxygenase-2, and Lipoxygenase-5/15” (Biomolecules, 2019).

Structures can show the parent of a compound that is named as a salt. Where two headings read alike, the source gives them in different places.

In data set [1] the target is T1, AChE (Homo sapiens, UniProt P22303). Briefly: biochemical. Conditions: for Selectivity index (SI): SI = IC50 (AChE)/IC50 (BChE); for IC50: recombinant human AChE, Ellman's method, triplicate. A general note: In Ellman's method for cholinesterases, released thiocholine reacts with DTNB.
For data set [2], the target named is T2, BChE (Homo sapiens, UniProt P06276).
T2 construct: purchased Cloud-Clone Corp., through BIOCOM Africa (Pty) Ltd RPC348Hu0 2_100
Briefly: biochemical. Conditions: Ellman's method, triplicate.
Description: Their anti-AChE and BChE activities were determined by spectrophotometric Ellman’s method [42]. […] The mixtures were incubated for 15 min at RT. The reaction was initiated by adding 10 µL of a mixture solution of 5 mM 5,50-dithio-bis-nitrobenzoic acid (DTNB) in 50 mM tris buffer (pH 7.7) and 10 µL acetylthiocholine (ASCh) (5 mM) in 50 mM tris buffer, pH 7.7. The hydrolysis of ASCh was determined by monitoring the formation of the yellow 5-thio-2-nitrobenzoate anion resulting from reaction of DTNB with thiocholines (SCh).
The IC50 values were determined graphically from inhibition curves (inhibitor concentration and absorbance) using the graph pad prism.

The target in data set [3] is T3, BACE-1 (Homo sapiens, UniProt P56817).
T3 construct: purchased Pan Vera; host or cells: baculovirus expression
Briefly: β-Secretase FRET inhibition assay. Format: biochemical. The conditions noted are these: pH 4.5, 60 min at 25 °C, triplicate.

Data set [4] deals with T4, COX-2 (Homo sapiens, UniProt P35354).
T4 construct: purchased Bio Vision K547
T4 sequence (P35354 18-604): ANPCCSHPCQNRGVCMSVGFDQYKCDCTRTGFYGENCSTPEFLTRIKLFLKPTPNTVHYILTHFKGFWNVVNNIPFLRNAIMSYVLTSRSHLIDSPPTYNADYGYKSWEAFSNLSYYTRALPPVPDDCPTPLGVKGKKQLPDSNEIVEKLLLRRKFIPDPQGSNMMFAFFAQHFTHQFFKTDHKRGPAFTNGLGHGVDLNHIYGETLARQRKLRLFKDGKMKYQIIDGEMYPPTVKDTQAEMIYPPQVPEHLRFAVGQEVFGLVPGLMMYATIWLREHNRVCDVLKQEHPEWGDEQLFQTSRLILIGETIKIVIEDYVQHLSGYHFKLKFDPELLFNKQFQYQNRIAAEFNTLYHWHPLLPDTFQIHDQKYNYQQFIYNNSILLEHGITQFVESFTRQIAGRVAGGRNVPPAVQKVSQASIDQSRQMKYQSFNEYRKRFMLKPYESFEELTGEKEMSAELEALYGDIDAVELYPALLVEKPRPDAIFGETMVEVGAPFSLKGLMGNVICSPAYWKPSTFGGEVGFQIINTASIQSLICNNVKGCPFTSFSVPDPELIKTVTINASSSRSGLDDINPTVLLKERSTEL
Briefly: biochemical. The conditions noted are these: duplicate runs.
Description: The reagents for the COX-2 assay were prepared according to the standard protocol enclosed in the Cyclooxygenase inhibitor screening kit (Item No. K547; Bio Vision, Milpitas Blvd, Milpitas, CA USA). […] The assay mixtures in a 96-well plate were distributed as follows: two wells taken as enzyme control (10µL assay buffer) and two wells as inhibitor control (2 µL of celecoxib and 8 µL of COX assay buffer). Ten microliters of the test compounds concentrations and those of celecoxib were added to the remaining wells with the aid of a multi-channel pipette. Then, 80 µL of the reaction mix (a mixture of 76 µL COX assay buffer, 1 µL of COX probe, 2 µL of diluted COX cofactor and 1 µL of COX-2 enzyme) were added to the reaction mixture. The assay mixtures in the 96-well plate were incubated for 5 min. The reactions were initiated by the addition of 10 µL of diluted arachidonic acid and sodium hydroxide solution (10 µL of arachidonic acid and 90 µL of sodium hydroxide) to each well. The absorbance was measured using a Varioskan flash microplate spectrophotometer, and the IC50 was calculated with the aid of a graph pad prism

The target of data set [5] is T5, soybean lipoxygenases-15 (LOX-15) (Glycine max, UniProt P08170).
T5 construct: purchased Cayman Chemicals 760700
T5 sequence (P08170 1-839): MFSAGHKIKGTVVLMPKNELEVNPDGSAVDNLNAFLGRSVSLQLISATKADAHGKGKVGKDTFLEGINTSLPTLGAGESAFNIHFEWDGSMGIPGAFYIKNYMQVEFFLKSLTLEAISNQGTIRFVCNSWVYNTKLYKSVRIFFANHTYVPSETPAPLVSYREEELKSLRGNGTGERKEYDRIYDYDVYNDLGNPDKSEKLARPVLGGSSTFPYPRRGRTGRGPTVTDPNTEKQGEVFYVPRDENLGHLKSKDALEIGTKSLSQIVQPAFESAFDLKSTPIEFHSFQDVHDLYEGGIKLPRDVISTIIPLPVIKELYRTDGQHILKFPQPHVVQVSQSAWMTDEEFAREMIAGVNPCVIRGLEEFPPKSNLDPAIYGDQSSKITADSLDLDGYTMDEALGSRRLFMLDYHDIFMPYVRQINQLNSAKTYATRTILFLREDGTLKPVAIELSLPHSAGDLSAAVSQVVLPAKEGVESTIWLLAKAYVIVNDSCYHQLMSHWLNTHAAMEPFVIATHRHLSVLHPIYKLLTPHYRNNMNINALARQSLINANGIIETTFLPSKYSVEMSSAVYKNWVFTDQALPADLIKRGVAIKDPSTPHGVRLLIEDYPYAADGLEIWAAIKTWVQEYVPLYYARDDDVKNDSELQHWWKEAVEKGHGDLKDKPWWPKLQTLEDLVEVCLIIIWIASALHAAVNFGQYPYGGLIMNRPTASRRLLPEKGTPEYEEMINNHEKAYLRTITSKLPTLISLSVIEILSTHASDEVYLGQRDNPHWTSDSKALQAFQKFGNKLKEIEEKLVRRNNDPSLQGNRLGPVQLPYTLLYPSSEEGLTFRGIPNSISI
Briefly: Soybean LOX-15 inhibitory assay. Format: biochemical.
Description: Stock solutions of the test samples prepared in DMSO were further diluted with 50 mM Tris buffer of pH 7.7 to obtain concentrations of 0.01, 0.1, 1, 10, and 100 µM. The cells of a 96-well plate where arranged as follows: two wells taken as blanks (100 µL 50mM Tris buffer pH, 7.7), two wells taken as enzyme controls (90 µL of 15-LO Standard and 10 µL of DMSO), and two as 100% initial activity wells (90 µL lipoxygenase enzyme solution and 10 µL tris buffer). Then, 90 µL of lipoxygenase enzyme solution and 10 µL of each test compound (and reference standards) from the above concentrations were added to the other wells of a 96-well plate, and the plate was incubated for 5 min at room temperature. The reaction was initiated by addition of 10 µL of the arachidonic acid to each well containing the assay mixtures. The 96-well plate was shaken for 5 min on a shaker, and 100 µL of the chromogen (solution of equal volume developing reagent 1 and 2) was added to each well to initiate the reaction. The plate was again shaken for 5 min and the absorbance read at 490 nm in a Varioskan flash microplate spectrophotometer reader. The inhibitory concentration was expressed as a percentage using the formula below. Inhibitory concentration = AInitial activity −(ASample − ABlank sample)/AInitial activity×100 where ASample is the absorbance of the reaction mixture of the test sample, ABlank sample is the absorbance of the reaction mixture containing all reagents except enzyme, and AInitial activity is the absorbance of 100% initial activity.

Data set [6] deals with T6, human LOX-5 (Homo sapiens, UniProt P09917).
T6 construct: purchased BioVision K980
T6 sequence (P09917 1-674): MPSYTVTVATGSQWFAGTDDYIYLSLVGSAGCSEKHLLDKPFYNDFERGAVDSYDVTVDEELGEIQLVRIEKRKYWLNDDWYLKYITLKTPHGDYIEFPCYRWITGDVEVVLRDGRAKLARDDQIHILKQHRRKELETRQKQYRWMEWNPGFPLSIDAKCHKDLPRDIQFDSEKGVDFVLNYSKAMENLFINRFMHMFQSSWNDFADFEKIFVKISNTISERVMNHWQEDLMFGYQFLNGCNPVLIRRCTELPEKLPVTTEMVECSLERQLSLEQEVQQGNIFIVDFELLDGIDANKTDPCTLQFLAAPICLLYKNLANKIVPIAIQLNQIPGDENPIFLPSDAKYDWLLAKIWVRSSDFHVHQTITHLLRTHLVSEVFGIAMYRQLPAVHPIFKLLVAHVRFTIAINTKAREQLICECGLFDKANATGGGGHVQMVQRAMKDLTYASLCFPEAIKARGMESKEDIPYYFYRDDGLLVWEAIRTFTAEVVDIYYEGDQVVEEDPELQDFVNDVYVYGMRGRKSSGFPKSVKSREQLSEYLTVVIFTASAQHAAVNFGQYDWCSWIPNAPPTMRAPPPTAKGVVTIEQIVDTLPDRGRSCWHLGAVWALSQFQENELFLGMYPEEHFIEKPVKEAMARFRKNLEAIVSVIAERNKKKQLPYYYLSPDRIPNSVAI
Briefly: Human LOX-5 inhibitory assay. Format: biochemical.
Description: The reagents were prepared according to the Lipoxygenase inhibitor screening kit (Item No. K980; BioVision, Milpitas Blvd, Milpitas, CA, USA) standard protocol. Stock solutions of the test compounds were prepared in DMSO, and further diluted with 50 mM Tris HCl buffer (pH 7.7) to obtain final concentrations of 0.01, 0.1, 1, 5, and 10 µM. […] The wells of a 96-well plate were arranged as follows: two wells were taken as blanks (40 µL of assay buffer) and two as enzyme controls (2 µL of LOX-5 Standard and 38 µL of tris buffer). Two microliters (2 µL) of the test compounds (various concentration of test compounds and reference standards, respectively) followed by 38 µL of LOX assay buffer were added to the other wells of the 96-well plate in duplicate. Then, 40 µL of the reaction mixture (prepared by mixing thoroughly 36 µL of LOX assay buffer, 2 µL of LOX probe and 2 µL of LOX-5 enzyme) was added to each well containing the test mixtures, and the wells were incubated for 10 min at RT. The DMSO concentration in each reaction well was 1% to prevent enzyme structural deformation and, therefore, reduced activity. […] The percentage inhibition (%) was calculated using the equation below.
% Inhibition = Control − Test/Control×100

The nature of data set [7]: DPPH radical scavenging assay. Conditions: 45 min in the dark, triplicate. Here is the method:
The DPPH radical scavenging activity of compounds 2a–i and 3a–i was evaluated following the literature method by Zhu et al.. The compounds were evaluated against ascorbic acid (Sigma Aldrich, Saint Louis, Missouri, USA) as a positive control. Various concentrations of the test compounds and control (0 µM to 40 µM) in DMSO were mixed with a solution of DPPH (0.20 mM) in methanol. The mixtures were incubated in the dark for 45 min and then the absorbances were recorded at 512 nm using Varioskan flash microplate spectrophotometer reader. All tests and analyses were run in triplicate and averaged. The inhibition was calculated in terms of percentage using the formula below: DPPH radical scavenged (%)=AbC − AbS/AbC×100 where AbC is absorbance of control and AbS the absorbance of the test sample.
(DPPH is a stable violet radical that fades when it is reduced.)

The target in data set [8] is T1, AChE. In kind it is biochemical.
Excerpt: (§1) The Lineweaver–Burk plots (plots of the inverse of velocity against the inverse of the substrate concentration) were used to ascertain the mode of inhibition of these compounds. The Dixon plots of the inverse of velocity (1/v) against the concentration of the inhibitor at each concentration of substrate were used to determine their inhibitor constants (Ki).
For data set [9], the target named is T2, BChE. Format: biochemical.
Excerpt: as §1
The target of data set [10] is T3, BACE-1. Briefly: Kinetic study against β-secretase (Lineweaver-Burk and Dixon plots). Format: biochemical.
Excerpt: The Lineweaver–Burk plot (plot of the inverse of velocity (1/v) against the inverse of the substrate concentration (1/[S])) was used to ascertain the mode of inhibition of this compound.
The test system of data set [11] is breast cancer MCF-7 cell line. Briefly: MTT antigrowth assay, MCF-7. Conditions: preliminary results, read-out: IC50 antigrowth effect, MCF-7. In kind it is cell-based. Background: Tetrazolium assays rely on reduction of a dye to a coloured formazan, in cell work by metabolically active cells.
Description: (§2) Briefly, the Hek293-T cells and MCF-7 cancer cells were seeded in a 96-well plate at a density of 20 × 10^3 cells per well, and then incubated at 37 °C in 5% CO2 to allow cell attachment. The medium was removed and replaced with fresh medium containing various concentrations of the test sample and doxorubicin hydrochloride (10, 25, 50, 100, and 200 μM) and incubated for 24 h. After treatment for 24 h, 10 μL MTT (5 mg/mL) was added to each well and the plate was further incubated for 4 h. The supernatant was removed, and 100 μL of DMSO was added to each well to dissolve the resulting formazan crystals. The absorbance was read at 570 nm using the Varioskan flash microplate spectrophotometer reader and the cell viability. The percentages of cell viability were used to determine the IC50 values.
In data set [12] the test system is Hek293-T cells. Briefly: MTT cytotoxicity assay, Hek293-T. The conditions noted are these: up to a concentration of 50 μM.
Description: as §2
[13] abbreviates: Lineweaver-Burk and Dixon plots.

T3 sequence (P56817 46-501): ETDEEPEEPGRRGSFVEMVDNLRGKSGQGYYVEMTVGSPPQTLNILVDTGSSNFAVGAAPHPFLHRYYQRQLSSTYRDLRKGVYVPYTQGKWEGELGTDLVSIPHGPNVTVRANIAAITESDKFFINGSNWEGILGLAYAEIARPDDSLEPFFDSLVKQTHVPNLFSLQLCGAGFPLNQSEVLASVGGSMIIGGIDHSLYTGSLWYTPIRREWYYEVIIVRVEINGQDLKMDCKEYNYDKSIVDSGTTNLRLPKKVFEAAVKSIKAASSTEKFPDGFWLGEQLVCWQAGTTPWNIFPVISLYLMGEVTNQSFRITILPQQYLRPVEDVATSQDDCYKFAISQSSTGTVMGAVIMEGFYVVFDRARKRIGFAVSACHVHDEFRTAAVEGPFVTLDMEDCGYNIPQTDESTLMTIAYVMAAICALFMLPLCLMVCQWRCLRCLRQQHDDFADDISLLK
T1 sequence (P22303 32-614): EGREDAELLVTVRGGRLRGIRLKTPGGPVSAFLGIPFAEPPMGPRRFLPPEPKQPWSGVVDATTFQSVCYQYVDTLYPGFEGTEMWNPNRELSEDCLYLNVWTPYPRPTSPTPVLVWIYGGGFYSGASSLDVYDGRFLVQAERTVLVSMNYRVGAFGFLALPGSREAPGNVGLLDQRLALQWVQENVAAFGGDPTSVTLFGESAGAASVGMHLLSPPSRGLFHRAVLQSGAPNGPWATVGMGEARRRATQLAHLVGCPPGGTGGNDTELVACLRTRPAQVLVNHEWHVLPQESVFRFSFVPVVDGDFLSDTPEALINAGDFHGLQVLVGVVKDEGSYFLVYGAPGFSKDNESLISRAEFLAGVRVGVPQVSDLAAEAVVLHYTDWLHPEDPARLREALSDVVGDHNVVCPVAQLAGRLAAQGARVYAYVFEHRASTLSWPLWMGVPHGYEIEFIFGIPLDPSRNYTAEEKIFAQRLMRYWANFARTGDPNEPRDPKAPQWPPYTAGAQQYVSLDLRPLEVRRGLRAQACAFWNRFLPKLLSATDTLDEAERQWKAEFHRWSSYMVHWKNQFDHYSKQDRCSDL
T2 sequence (P06276 29-602): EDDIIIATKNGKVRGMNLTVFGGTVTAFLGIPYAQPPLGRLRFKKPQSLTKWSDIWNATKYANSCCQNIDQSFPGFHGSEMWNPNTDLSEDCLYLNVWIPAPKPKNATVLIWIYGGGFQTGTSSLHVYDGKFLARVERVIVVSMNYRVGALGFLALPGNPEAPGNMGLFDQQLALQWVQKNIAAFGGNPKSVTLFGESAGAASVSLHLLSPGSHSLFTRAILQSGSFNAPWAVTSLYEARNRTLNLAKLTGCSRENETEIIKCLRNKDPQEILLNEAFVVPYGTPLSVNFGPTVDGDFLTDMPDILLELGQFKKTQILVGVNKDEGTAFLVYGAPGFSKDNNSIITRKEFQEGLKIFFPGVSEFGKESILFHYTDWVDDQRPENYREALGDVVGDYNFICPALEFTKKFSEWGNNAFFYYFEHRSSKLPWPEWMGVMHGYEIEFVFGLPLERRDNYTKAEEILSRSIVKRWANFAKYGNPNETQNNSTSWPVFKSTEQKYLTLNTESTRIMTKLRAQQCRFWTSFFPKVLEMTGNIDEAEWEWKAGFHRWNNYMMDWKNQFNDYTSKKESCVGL

The IC50 is the concentration that inhibits the measured activity by half. As a reminder, the Ki is the equilibrium dissociation constant of an inhibitor or competing ligand from its target. As for “2-(4-Chlorophenyl)-6-[(4-trifluoromethylphenyl)hydrazonomethyl]furo[3,2-h]chromen-5-one [Compound 3e]”, in data set [1], the “Selectivity index (SI)” value came to 0.5. The IC50 in data set [1] worked out at 5.4 ± 0.02 µM; in data set [2], 9.9 ± 0.04 µM; in data set [3], 13.6 ± 0.02 µM; in data set [4], 10.4 ± 0.03 µM; in [5] (soybean LOX-15, duplicate runs, read-out: IC50 LOX-15) it was 14.9 ± 0.04 µM; in data set [6] (human LOX-5, duplicate, read-out: IC50 LOX-5), 28.5 ± 0.02 µM. The IC50 is 25.9 ± 0.05 µM in [7] and 6.82 ± 0.02 µM in [11] (24 h treatment). Moreover, the inhibition constant (Ki) stood at 1.6 ± 0.01 µM in data set [8] (Dixon plot); 1.92 ± 0.01 µM in data set [9] (Dixon plot); 2.5 ± 0.01 µM in data set [10] (Dixon plot, substrate 150, 300 and 450 nM). Besides, in data set [8] (setting [13]), the “Mode of inhibition, AChE” value was “non-competitive mode of inhibition”. Moreover, the “Mode of inhibition, BChE” value in data set [9] (setting [13]) is “non-competitive mode of inhibition”. Also, in [10] (setting [13]), the “Mode of inhibition, BACE-1” value is on record as “mixed mode of inhibition”. The “Toxicity in Hek293-T cells” value in [12] was “non-toxic”.
On to `COc1ccc(-c2cc3c(ccc4c(=O)c(C=O)coc43)o2)cc1` [Compound 2f, 8-(4-Methoxyphenyl)-4-oxo-4H-furo[2,3-h]chromene-3-carbaldehyde], for which the “Selectivity index (SI)” value in data set [1] was 1.6. The half-maximal inhibitory concentration (IC50) is 34.2 ± 0.02 µM in [1]; 21.8 ± 0.02 µM in data set [2]; 13.7 ± 0.04 µM in [4]; 8.2 ± 0.03 µM in data set [5]; 17.3 ± 0.01 µM in [6]; 14.3 ± 0.02 µM in [7].
For `COc1cc(OC)cc(-c2cc3c(ccc4c(=O)c(C=O)coc43)o2)c1` [Compound 2g, 8-(3,5-Dimethoxyphenyl)-4-oxo-4H-furo[2,3-h]chromene-3-carbaldehyde], the “Selectivity index (SI)” value in [1] is given as 1.1. Moreover, the IC50 in data set [1] came to 25.3 ± 0.02 µM; in [2], 23.2 ± 0.04 µM; in data set [4], 23.5 ± 0.03 µM; in data set [5] it was 10.6 ± 0.04 µM; in data set [6], 24.6 ± 0.02 µM; in data set [7] it was 8.3 ± 0.02 µM.
For `Cc1ccc(-c2cc3c(ccc4c(=O)c(C=O)coc43)o2)cc1` [Compound 2h, 8-(4-Methyphenyl)-4-oxo-4H-furo[2,3-h]chromene-3-carbaldehyde], the “Selectivity index (SI)” value in data set [1] was found to be 0.8. Moreover, the IC50 in data set [1] is 20.9 ± 0.01 µM; in data set [2] it was 25.9 ± 0.03 µM; in data set [4], 19.8 ± 0.03 µM; in data set [5], 9.2 ± 0.03 µM; in data set [6], 28.7 ± 0.03 µM; in [7] it was 11.6 ± 0.03 µM.
For `COc1cccc2c1C(=O)c1c(O)c3c(c(O)c1C2=O)C[C@@](O)(C(=O)CO)C[C@@H]3O[C@H]1C[C@H](N)[C@H](O)[C@H](C)O1` [doxorubicin hydrochloride, reference compound], in [11] (Homo sapiens, MCF7, 24 h treatment), the IC50 was 1.59 ± 0.01 µM.
